Test: Time until the effects of THC are felt after ingestion of a hydrogen-containing composition (uptake rate)
Assay type: in vivo
Conditions: human subject; drunk composition of liquid such as water, dissolved hydrogen and THC
Text: In some embodiments, the composition comprising hydrogen and an active pharmaceutical agent may have an uptake rate that is at least 2, at least 3, at least 5, at least 10, at least 20, at least 30, or at least 50 times the uptake rate of the active pharmaceutical agent alone by a subject. In certain embodiments, composition comprising hydrogen and an active pharmaceutical agent may have an uptake rate that is less than or equal to 100, less than or equal to 50, less than or equal to 30, less than or equal to 20, less than or equal to 10, less than or equal to 5, or less than or equal to 3 times the uptake rate of the active pharmaceutical agent alone by the subject. Combinations of the above-referenced ranges are also possible (e.g., at least 2 or less than or equal to 100 times). Other ranges are also possible. The uptake rate of a composition (or active pharmaceutical agent) may be determined by administering the composition (or active pharmaceutical agent) to a subject and determining the amount of time required to observe a pharmacological effect (e.g., a psychotropic effect, a reduction in disease and/or clinical symptom) of the active pharmaceutical agent on the subject.
A composition such as described herein is provided to a subject, such as a human subject. […]

## CCCCCc1cc(O)c2c(c1)OC(C)(C)[C@@H]1CCC(C)=C[C@@H]21 [THC, tetrahydrocannabinol]
  time after ingestion until the effects of the THC are felt by the subject: less than 5 minutes

Reference: US10076540B1, “Medication enhancement using hydrogen” (Perricone Hydrogen Water Company, LLC, priority 2017, dated 2018)
